Experiment [1] concerns rice seedlings. Briefly: Effect of improving the growth of rice seedlings - 1 (soil irrigation in seedling box, harvest 33 days from sowing). The format is in vivo, rice (koshihikari variety). The method, then: 450 g/pot of soil was placed in a seedling box (the area was 1/120,000×10 a). The soil used was a purchased volcanic ash soil (andosol). […] Fertilizer application was carried out using a liquid fertilizer, Hyponica, at a rate of 3 kg-N/10 a. […] After 29 days from sowing, additional fertilizer application was carried out using a liquid fertilizer, Hyponica, at a rate of 3 kg-N/10 a. After 33 days from sowing, the plant bodies were harvested, and the fresh weight (roots) and the tillering number were measured.

Experiment [2] concerns rice seedlings. Briefly: Effect of improving rice seedling growth - 2 (soil irrigation in seedling box, harvest 22 days from sowing). Format: in vivo. To be noted: for SPAD value (chlorophyll content) / Stem thickness: 5-aminolevulinic acid hydrochloride 600 mg/10 a and/or inabenfide 300 g/10 a, n = 15 to 17. The method, then: 450 g/pot of soil was placed in a seedling box (the area was 1/120,000×10 a). The soil used was a purchased volcanic ash soil (andosol). […] Fertilizer application was carried out using a liquid fertilizer, Hyponica, at a rate of 5 kg-N/10 a. […] The results for the fresh weight of roots and the tillering number under various conditions are presented in Table 6, and the results for the stem thickness and the chlorophyll content (SPAD value) under various conditions are presented in Table 7.

For experiment [3], the system named is rice seedlings. Briefly: Verification of effect: treated seedlings transplanted into paddy field pot, harvest after three weeks. The format is in vivo. As to conditions: 3 weeks after transplantation into paddy field pot; treated upon raising seedlings: 5-aminolevulinic acid hydrochloride 120 mg/10a and/or inabenfide 1200 g/10a; n = 3. The method, then:
450 g/pot of soil was placed in a seedling box (the area was 1/120,000×10 a). The soil used was a purchased volcanic ash soil (andosol). Rice seeds which had been subjected to brine grading using a brine having a specific gravity of 1.13, and had been germinated, were sowed at a rate of 15 seeds/pot, and the seeds were covered with soil at a depth of 1 to 2 cm (50 g/pot). Fertilizer application was carried out using a liquid fertilizer, Hyponica, at a rate of 5 kg-N/10 a. For each of the test zones (n=4), the soil was irrigated with combinations of inabenfide in an amount of treatment of 1,200 or 300 g/10 a, and 5-aminolevulinic acid hydrochloride in an amount of treatment of 600, 200 or 120 mg/10 a. After 22 days from sowing, the plant bodies were harvested, and the fresh weight (roots), the tillering number, the stem thickness and the chlorophyll content (SPAD value) were measured. The results for the fresh weight of roots and the tillering number under various conditions are presented in Table 6, and the results for the stem thickness and the chlorophyll content (SPAD value) under various conditions are presented in Table 7.
Seedlings were raised in the same manner as in Example 2. In regard to the treatment concentration upon raising seedlings, the treatment was carried out using 5-aminolevulinic acid hydrochloride at a concentration of 120 (mg/10 a) and inabenfide at a concentration of 1,200 (g/10 a). After the seedlings were raised, the roots of four seedlings were evenly cut to 2 cm, and the seedlings were transplanted into a pot simulating the state of paddy field. After three weeks from the transplantation into the pot simulating the state of paddy field, the plant bodies were harvested, and the dry weights of the aerial part and the root part, and the tillering number were measured. The various treatment conditions employed upon raising the seedlings, and the measurement values obtained after 3 weeks from the transplantation into paddy field pot are presented in Table 8.

The mark [4] stands for this setting: 5-aminolevulinic acid hydrochloride 200 mg/10 a and/or paclobutrazole 90 g/10 a.
Where [5] appears, read: 5-aminolevulinic acid hydrochloride 120 mg/10 a, inabenfide 0.
Where [6] appears, read: 5-aminolevulinic acid hydrochloride 200 mg/10 a, inabenfide 0.
Where [7] appears, read: 5-aminolevulinic acid hydrochloride 600 mg/10 a, inabenfide 0.
The mark [8] stands for this setting: 5-aminolevulinic acid hydrochloride 200 mg/10 a and/or inabenfide 1200 g/10 a.
[9] abbreviates: 5-aminolevulinic acid hydrochloride 200 mg/10 a and/or prohexadione calcium salt 15 g/10 a.
Setting [10] is: 5-aminolevulinic acid hydrochloride 200 mg/10 a and/or trinexapac-ethyl 1.25 g/10 a.
Where [11] appears, read: 5-aminolevulinic acid hydrochloride 200 mg/10 a and/or uniconazole P 30 g/10 a.
The mark [12] stands for this setting: 5-aminolevulinic acid hydrochloride 200 mg/10 a and/or uniconazole P 30 g/10 a, n=4 zones.
Where [13] appears, read: inabenfide 300 g/10 a, 5-aminolevulinic acid hydrochloride 0.
[14] abbreviates: inabenfide 1200 g/10 a, 5-aminolevulinic acid hydrochloride 0.

This is an account of results in patent publication US20100331183A1, “AGENT FOR IMPROVING GOOD RICE SEEDLING GROWTH” (COSMO OIL CO., LTD, priority 2008, published 2010).

As to `CC(C)(C)[C@@H](O)[C@@H](Cc1ccc(Cl)cc1)n1cncn1` (racemic) [Paclobutrazole, (2RS,3RS)-1-(4-chlorophenyl)-4,4-dimethyl-2-(1H-1,2,4-triazol-1-yl)pentan-3-ol], in experiment [1] (setting [4]), the “Average tillering number per plant body” value was 0.80 and the “Fresh weight of roots” value worked out at 0.29 g.
Turning to `Cl.NCC(=O)CCC(=O)O` [5-aminolevulinic acid hydrochloride], the “Average tillering number per plant body” value in experiment [2] (setting [5]) was determined as 0.03; in experiment [2] (setting [6]), 0.01; in experiment [2] (setting [7]) it was 0.00; in experiment [1] (setting [8]) it was 0.00; in experiment [1] (setting [4]), 0.00; in experiment [1] (setting [10]) it was 0.00. In addition, the “Average tillering number per plant body” value worked out at 0.00 in experiment [1] (setting [11]) and 6.7 in experiment [3]. Besides, the “Fresh weight of roots” value was determined as 0.35 g in experiment [2] (setting [5]); 0.36 g in experiment [2] (setting [6]); 0.35 g in experiment [2] (setting [7]); 0.29 g in experiment [1] (setting [8]); 0.29 g in experiment [1] (setting [4]); 0.29 g in experiment [1] (setting [9]). Further, the “Fresh weight of roots” value in experiment [1] (setting [10]) and in experiment [1] (setting [12]) was 0.29 g each time. The “SPAD value (chlorophyll content)” value in experiment [2] worked out at 28.70. For the same compound, in experiment [2], the Stem thickness is given as 0.429 cm. In experiment [3], the “Degree of sturdiness (dry weight/height for shoots)” value was 0.052 g/cm. Further, the “Dry weight of roots” value in experiment [3] turned out to be 1.0 g. The “Dry weight of shoots” value in experiment [3] is reported as 3.2 g. Moreover, the “Fresh weight of shoots” value in experiment [3] turned out to be 14.1 g.
Regarding `O=C(Nc1ccc(Cl)cc1C(O)c1ccccc1)c1ccncc1` (stereo not drawn) [Inabenfide], in experiment [2], the “SPAD value (chlorophyll content)” value was 29.23 and the Stem thickness is listed as 0.415 cm. Moreover, in experiment [2] (setting [13]), the “Average tillering number per plant body” value is given as 0.11 and the “Fresh weight of roots” value was 0.35 g. Besides, in experiment [2] (setting [14]), the “Average tillering number per plant body” value is given as 0.41 and the “Fresh weight of roots” value is on record as 0.35 g. Moreover, in experiment [1] (setting [8]), the “Average tillering number per plant body” value is 0.19 and the “Fresh weight of roots” value worked out at 0.34 g. In experiment [3], the “Average tillering number per plant body” value was determined as 8.0, the “Degree of sturdiness (dry weight/height for shoots)” value was determined as 0.060 g/cm, the “Dry weight of roots” value is recorded as 1.1 g and the “Dry weight of shoots” value is on record as 3.6 g. Moreover, in experiment [3], the “Fresh weight of shoots” value came to 15.8 g.
For the compound `CCC(=O)C1=C([O-])CC(C(=O)[O-])CC1=O.[Ca+2]` (stereo not drawn) [Prohexadione calcium salt, calcium 3-oxido-5-oxo-4-propionyl-3-cyclohexene carboxylate], the “Fresh weight of roots” value in experiment [1] (setting [9]) stood at 0.32 g.
For the compound `CCOC(=O)C1CC(=O)C(=C(O)C2CC2)C(=O)C1` (stereo not drawn) [Trinexapac-ethyl, ethyl=4-cyclopropyl-α-hydroxymethylene)-3,5-dioxocyclohexane carboxylate], in experiment [1] (setting [10]), the “Average tillering number per plant body” value was found to be 0.00 and the “Fresh weight of roots” value worked out at 0.23 g.
With `CC(C)(C)[C@H](O)/C(=C\c1ccc(Cl)cc1)n1cncn1` [Uniconazole P, (E)-(S)-1-(4-chlorophenyl)-4,4-dimethyl-2-(1H-1,2,4-triazol-1-yl)pent-1-en-3-ol], the “Average tillering number per plant body” value in experiment [1] (setting [11]) was determined as 0.86. Moreover, in experiment [1] (setting [12]), the “Fresh weight of roots” value was 0.28 g.
